From patent publication US20260132132A1, “3A,4,5,6-TETRAHYDRO-1 H-PYRAZOLO[3,4-C]PYRIDIN-7(7AH)-ONE DERIVATIVES AS FACTOR XIIA INHIBITORS” (KALVISTA PHARMACEUTICALS LIMITED, priority 2022, published 2026)
pIC50: −log10 of the molar value.

What was measured:
FXa = FXa (Homo sapiens, UniProt P00742); assay: Related protease inhibition: FXa, fluorogenic substrate; format: biochemical; conditions: fluorogenic substrate at Km, 25° C.; H1-H3 = % activity at 40 μM
Experimental: Human serine protease enzyme Plasma Kallikrein, KLK1, FXa, Plasmin, Thrombin and Trypsin were assayed for enzymatic activity using an appropriate fluorogenic substrate at Km concentration, FXIa at fixed substrate concentration of 100 μM and various concentrations of the test compound.

[1] = target: T1, Human Factor XIIa (hFXIIa) (Homo sapiens, UniProt P00748); assay: Determination of Human Factor XIIa (hFXIIa) inhibition, fluorogenic substrate IC50 assay; format: biochemical; conditions: fluorogenic substrate H-DPro-Phe-Arg-AFC at Km, 25° C., read-out: Human FXIIa IC50
T1 construct: purchased Enzyme Research Laboratories
T1 sequence (P00748 373-615 limits assumed): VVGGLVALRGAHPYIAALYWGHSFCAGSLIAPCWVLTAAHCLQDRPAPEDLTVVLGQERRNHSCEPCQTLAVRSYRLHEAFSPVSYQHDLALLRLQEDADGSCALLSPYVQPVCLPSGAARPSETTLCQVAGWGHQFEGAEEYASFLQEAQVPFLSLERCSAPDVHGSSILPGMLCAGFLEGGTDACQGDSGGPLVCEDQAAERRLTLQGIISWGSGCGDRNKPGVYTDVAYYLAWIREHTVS
T1 sequence (P00748 20-372 partner limits assumed): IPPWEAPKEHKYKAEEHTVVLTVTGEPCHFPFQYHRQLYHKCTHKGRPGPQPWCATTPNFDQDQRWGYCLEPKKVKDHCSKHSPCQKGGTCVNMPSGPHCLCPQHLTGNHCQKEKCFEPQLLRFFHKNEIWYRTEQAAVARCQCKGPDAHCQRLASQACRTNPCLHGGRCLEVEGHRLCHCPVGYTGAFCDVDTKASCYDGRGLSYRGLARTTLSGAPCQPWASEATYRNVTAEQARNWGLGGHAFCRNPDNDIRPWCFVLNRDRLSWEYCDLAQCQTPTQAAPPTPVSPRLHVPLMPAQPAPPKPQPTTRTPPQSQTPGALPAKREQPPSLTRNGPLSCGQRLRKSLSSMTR
Experimental: Determination of Human Factor XIIa (hFXIIa) inhibition
The Km for the cleavage of the substrate by hFXIIa was determined by standard transformation of the Michaelis-Menten equation, with subsequent inhibition assays performed at substrate Km concentration.

FXa, sequence (P00742 235-488 limits assumed): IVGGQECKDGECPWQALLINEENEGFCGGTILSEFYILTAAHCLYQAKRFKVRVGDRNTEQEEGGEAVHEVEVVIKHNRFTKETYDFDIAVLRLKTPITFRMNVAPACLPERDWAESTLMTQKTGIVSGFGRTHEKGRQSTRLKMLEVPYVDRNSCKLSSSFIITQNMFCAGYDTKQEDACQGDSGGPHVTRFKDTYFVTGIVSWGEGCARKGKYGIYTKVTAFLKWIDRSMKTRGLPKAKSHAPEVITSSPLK
FXa, sequence (P00742 41-179 partner limits assumed): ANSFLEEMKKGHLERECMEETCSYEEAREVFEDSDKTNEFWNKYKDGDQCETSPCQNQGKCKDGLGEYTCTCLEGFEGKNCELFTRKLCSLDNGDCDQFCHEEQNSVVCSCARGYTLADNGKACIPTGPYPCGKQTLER

SMILES | pIC50 (FXa) | pIC50 [1]
Cc1cncc(CNC(=O)c2nn(-c3cccc(Cl)c3)c3c2CCN(c2ccc4c(c2)CN(CCO)CC4)C3=O)c1 [Example 1126, 1-(3-chlorophenyl)-6-(2-(2-hydroxyethyl)-1,2,3,4-tetrahydroisoquinolin-7-yl)-N-((5-methylpyridin-3-yl)methyl)-7-oxo-4,5,6,7-tetrahydro-1H-pyrazolo[3,4-c]pyridine-3-carboxamide] | 4.40 to 5.00 | 7.00 to 8.00
Cc1ccncc1CNC(=O)c1nn(-c2cccc(Cl)c2)c2c1CCN(c1ccc3c(c1)CN(C)CC3)C2=O [Example 1129, 1-(3-chlorophenyl)-6-(2-methyl-1,2,3,4-tetrahydroisoquinolin-7-yl)-N-((4-methylpyridin-3-yl)methyl)-7-oxo-4,5,6,7-tetrahydro-1H-pyrazolo[3,4-c]pyridine-3-carboxamide] | 5.00 to 5.52 | 7.00 to 8.00
CN1CCc2ccc(N3CCc4c(C(=O)NC5(C(=O)O)CC5)nn(-c5cccc(Cl)c5)c4C3=O)cc2C1=O [Example 1361, 1-(1-(3-chlorophenyl)-6-(2-methyl-1-oxo-1,2,3,4-tetrahydroisoquinolin-7-yl)-7-oxo-4,5,6,7-tetrahydro-1H-pyrazolo[3,4-c]pyridine-3-carboxamido)cyclopropane-1-carboxylic acid] | 4.40 to 5.00 | 5.52 to 6.00
CCNC(=O)c1nn(-c2ccc(C)cn2)c2c1CCN(c1ccc3c(c1)C(=O)N(C)CC3)C2=O [Example 2028, N-ethyl-6-(2-methyl-1-oxo-1,2,3,4-tetrahydroisoquinolin-7-yl)-1-(5-methylpyridin-2-yl)-7-oxo-4,5,6,7-tetrahydro-1H-pyrazolo[3,4-c]pyridine-3-carboxamide] | < 4.40 | 4.40 to 5.00
CN1CCc2ccc(N3CCc4c(C(=O)NC(CO)c5cccnc5)nn(-c5cccc(Cl)c5)c4C3=O)cc2C1=O (stereo not drawn) [Example 1187, 1-(3-chlorophenyl)-N-(2-hydroxy-1-(pyridin-3-yl)ethyl)-6-(2-methyl-1-oxo-1,2,3,4-tetrahydroisoquinolin-7-yl)-7-oxo-4,5,6,7-tetrahydro-1H-pyrazolo[3,4-c]pyridine-3-carboxamide] | < 4.40 | 6.00 to 6.52
Cc1cc(CNC(=O)c2nn(-c3cccc(Cl)c3)c3c2CCN(c2ccc4c(c2)C(=O)N(C)CC4)C3=O)nn1C [Example 1199, 1-(3-chlorophenyl)-N-((1,5-dimethyl-1H-pyrazol-3-yl)methyl)-6-(2-methyl-1-oxo-1,2,3,4-tetrahydroisoquinolin-7-yl)-7-oxo-4,5,6,7-tetrahydro-1H-pyrazolo[3,4-c]pyridine-3-carboxamide] | 4.40 to 5.00 | 6.52 to 7.00
CCN1CCc2ccc(N3CCc4c(C(=O)NCc5nn(C)cc5C)nn(-c5cccc(Cl)c5)c4C3=O)cc2C1=O [Example 1224, 1-(3-chlorophenyl)-N-((1,4-dimethyl-1H-pyrazol-3-yl)methyl)-6-(2-ethyl-1-oxo-1,2,3,4-tetrahydroisoquinolin-7-yl)-7-oxo-4,5,6,7-tetrahydro-1H-pyrazolo[3,4-c]pyridine-3-carboxamide] | < 4.40 | 6.52 to 7.00
CCNC(=O)c1nn(-c2cccc(Cl)c2)c2c1CCN(c1cccc(CN3CCCCC3)c1)C2=O [Example 1011, 1-(3-chlorophenyl)-N-ethyl-7-oxo-6-(3-(piperidin-1-ylmethyl)phenyl)-4,5,6,7-tetrahydro-1H-pyrazolo[3,4-c]pyridine-3-carboxamide] | < 4.00 | 5.00 to 5.52
Cc1ccncc1C(C)NC(=O)c1nn(-c2cccc(Cl)c2)c2c1CCN(c1ccc3c(c1)C(=O)N(CCO)CC3)C2=O (stereo not drawn) [Example 1327, 1-(3-chlorophenyl)-6-(2-(2-hydroxyethyl)-1-oxo-1,2,3,4-tetrahydroisoquinolin-7-yl)-N-(1-(4-methylpyridin-3-yl)ethyl)-7-oxo-4,5,6,7-tetrahydro-1H-pyrazolo[3,4-c]pyridine-3-carboxamide] | < 4.40 | 6.52 to 7.00
CC(=O)N1CCCc2ccc(N3CCc4c(C(=O)NCc5cnccc5C)nn(-c5cccc(Cl)c5)c4C3=O)cc21 [Example 1314, 6-(1-acetyl-1,2,3,4-tetrahydroquinolin-7-yl)-1-(3-chlorophenyl)-N-((4-methylpyridin-3-yl)methyl)-7-oxo-4,5,6,7-tetrahydro-1H-pyrazolo[3,4-c]pyridine-3-carboxamide] | 4.40 to 5.00 | 6.52 to 7.00
O=C(NCC1CC1)c1nn(-c2cccc(Cl)c2)c2c1CCN(c1ccc3c(c1)CNCC3)C2=O [Example 1074, 1-(3-chlorophenyl)-N-(cyclopropylmethyl)-7-oxo-6-(1,2,3,4-tetrahydroisoquinolin-7-yl)-4,5,6,7-tetrahydro-1H-pyrazolo[3,4-c]pyridine-3-carboxamide] | 4.40 to 5.00 | 5.52 to 6.00
CCNC(=O)c1nn(-c2cccc(Cl)c2)c2c1CCN(c1cccc(N3CCCS3(=O)=O)c1)C2=O [Example 1366, 1-(3-chlorophenyl)-6-(3-(1,1-dioxidoisothiazolidin-2-yl)phenyl)-N-ethyl-7-oxo-4,5,6,7-tetrahydro-1H-pyrazolo[3,4-c]pyridine-3-carboxamide] | 4.40 to 5.00 | 5.00 to 5.52
CNC(=O)c1nn(-c2cccc(Cl)c2)c2c1CCN(c1ccc3c(c1)C(=O)N(C)CC3)C2=O [Example 1334, 1-(3-chlorophenyl)-N-methyl-6-(2-methyl-1-oxo-1,2,3,4-tetrahydroisoquinolin-7-yl)-7-oxo-4,5,6,7-tetrahydro-1H-pyrazolo[3,4-c]pyridine-3-carboxamide] | < 4.40 | 6.00 to 6.52
Cc1ccncc1CNC(=O)c1nn(-c2cccc(Cl)c2)c2c1CCN(c1ccc3c(c1)C(=O)N(CCO)CCO3)C2=O [Example 1299, 1-(3-chlorophenyl)-6-(4-(2-hydroxyethyl)-5-oxo-2,3,4,5-tetrahydrobenzo[f][1,4]oxazepin-7-yl)-N-((4-methylpyridin-3-yl)methyl)-7-oxo-4,5,6,7-tetrahydro-1H-pyrazolo[3,4-c]pyridine-3-carboxamide] | 4.40 to 5.00 | 7.00 to 8.00
CCNC(=O)c1nn(-c2cccc(Cl)c2)c2c1CCN(c1ccc3c(c1)C(=O)N(C)CC(=O)N3C)C2=O [Example 1375, 1-(3-chlorophenyl)-6-(1,4-dimethyl-2,5-dioxo-2,3,4,5-tetrahydro-1H-benzo[e][1,4]diazepin-7-yl)-N-ethyl-7-oxo-4,5,6,7-tetrahydro-1H-pyrazolo[3,4-c]pyridine-3-carboxamide] | < 4.40 | 5.00 to 5.52
CN1CCc2ccc(N3CCc4c(C(=O)NC5(C)CCOCC5)nn(-c5cccc(Cl)c5)c4C3=O)cc2C1 [Example 1064, 1-(3-chlorophenyl)-6-(2-methyl-1,2,3,4-tetrahydroisoquinolin-7-yl)-N-(4-methyltetrahydro-2H-pyran-4-yl)-7-oxo-4,5,6,7-tetrahydro-1H-pyrazolo[3,4-c]pyridine-3-carboxamide] | – | 6.00 to 6.52
O=C1CC[C@H](CN2CCc3ccc(N4CCc5c(C(=O)NCC6CC6)nn(-c6cccc(Cl)c6)c5C4=O)cc3C2)N1 [Example 1120, (R)-1-(3-chlorophenyl)-N-(cyclopropylmethyl)-7-oxo-6-(2-((5-oxopyrrolidin-2-yl)methyl)-1,2,3,4-tetrahydroisoquinolin-7-yl)-4,5,6,7-tetrahydro-1H-pyrazolo[3,4-c]pyridine-3-carboxamide] | – | 6.00 to 6.52
O=C(NCc1ccoc1)c1nn(-c2cccc(Cl)c2)c2c1CCN(c1ccc3c(c1)CN(CCO)CC3)C2=O [Example 1105, 1-(3-chlorophenyl)-N-(furan-3-ylmethyl)-6-(2-(2-hydroxyethyl)-1,2,3,4-tetrahydroisoquinolin-7-yl)-7-oxo-4,5,6,7-tetrahydro-1H-pyrazolo[3,4-c]pyridine-3-carboxamide] | – | 6.52 to 7.00
O=C(NCC1CC1)c1nn(-c2cccc(Cl)c2)c2c1CCN(c1ccc3c(c1)CN(CC1CCCC1)CC3)C2=O [Example 1102, 1-(3-chlorophenyl)-6-(2-(cyclopentylmethyl)-1,2,3,4-tetrahydroisoquinolin-7-yl)-N-(cyclopropylmethyl)-7-oxo-4,5,6,7-tetrahydro-1H-pyrazolo[3,4-c]pyridine-3-carboxamide] | – | 6.00 to 6.52
CN1CCc2ccc(N3CCc4c(C(=O)NC[C@H]5COCCO5)nn(-c5cccc(Cl)c5)c4C3=O)cc2C1=O [Example 1246, (S)-N-((1,4-dioxan-2-yl)methyl)-1-(3-chlorophenyl)-6-(2-methyl-1-oxo-1,2,3,4-tetrahydroisoquinolin-7-yl)-7-oxo-4,5,6,7-tetrahydro-1H-pyrazolo[3,4-c]pyridine-3-carboxamide] | – | 6.00 to 6.52
Cc1ccncc1CNC(=O)c1nn(-c2cccc(Cl)c2)c2c1CCN(c1ccc3c(c1)C(=O)NCC3)C2=O [Example 1240, 1-(3-chlorophenyl)-N-((4-methylpyridin-3-yl)methyl)-7-oxo-6-(1-oxo-1,2,3,4-tetrahydroisoquinolin-7-yl)-4,5,6,7-tetrahydro-1H-pyrazolo[3,4-c]pyridine-3-carboxamide] | – | 6.00 to 6.52
